Results reported in US10813929B2, “Treating cancer with ATR inhibitors” (VERTEX PHARMACEUTICALS INCORPORATED, priority 2011, dated 2020).

Experiments:
[1] = test system: PSN-1, Panc-1, MiaPaCa-2 pancreatic cancer cell lines; assay: Cell viability assay (Alamar Blue) with irradiation, tumour cells; format: cell-based; conditions: VE-821 for 96 h with or without 4 Gy; viability after 8 days; FIG. 1 panel B
Description: (§1) PSN-1, Panc-1, MiaPaCa-2 pancreatic cancer cell lines and MRCS fibroblasts were treated with increasing concentrations of VE-821 for 96 h combined with or without 4 Gy radiation at 1 h after VE-821 addition. Cell viability was measured after 8 days and shown as normalized to DMSO-treated cells. MiaPaCa-2, PSN-1, Panc1 and MRCS cells (5×104) were plated in 96-well plates and after 4 h treated with increasing concentrations of VE-821 at 1 h before irradiation with a single dose of 6 Gy. Medium was replaced 96 h post-irradiation at which point viability was measured using the using the Alamar Blue assay (Resazurin substrate, SIGMA). Cells were allowed to proliferate and cell viability was again analyzed at day 8 for the different treatment conditions. Cell viability and surviving fraction were normalized to the untreated (control) group.

MRCS fibroblasts = assay: Cell viability assay (Alamar Blue) with irradiation, normal cells; format: cell-based; conditions: VE-821 for 96 h with or without 4 Gy; viability after 8 days; FIG. 1 panel B
Description: as §1

[2] = test system: DNA damage foci and RAD51 foci; assay: Nuclear foci analysis (γH2AX, 53BP1, RAD51); format: cell-based; conditions: 1 μM VE-821, 6 Gy
Description: Cells were treated with 1 μM VE-821 at various time points in relation to 6 Gy irradiation, as indicated, and fixed at 24 h post-irradiation. Subsequently, cells were stained for (A) γH2AX and (B) 53BP1 foci and the percentage of cells with more than 7 and 5 foci per cell was quantitated, respectively. C, for analysing Rad51 foci formation, cells were fixed at 6 h post-irradiation and the percentage of cells with more than 9 foci per cell was quantitated. Representative images are shown on the right (n=3). *, P<0.05 Cells growing in 96-well plates were treated with 1 μM VE-821 drug 1 h prior to 6 Gy irradiation and fixed in 3% formaldehyde at multiple time points. Cells were subsequently pearmeabalised and blocked in PBS with 0.1% Triton 1% BSA (w/v). Cells were incubated with primary antibody overnight at 4° C. and after a PBS wash incubated with fluorescently labeled secondary antibody followed gy a PBS wash and nuclear staining with DAPI. Images were acquired and foci quantitated using an IN Cell Analyzer 1000 automated epifluorescence microscope and analysis software (GE Healthcare, Cahlfont St. Giles, UK)

[3] = test system: primary adenocarcinoma NSCLC xenograft; assay: Primary adenocarcinoma NSCLC xenograft model; format: in vivo, SCID mice; conditions: VE-822 60 mg/kg po qd4 with cisplatin 1 or 3 mg/kg ip q7d; FIG. 20
Description: Tumor tissue was excised from a patient with a poorly differentiated adenocarcinoma. This tumor tissue was implanted subcutaneously in the flank of a SCID mouse and passaged twice before compound testing. For compound testing passage-two tumor tissue was implanted subcutaneously in the flank of SCID mice and tumors grown to a volume of about 200 mm^3 Cisplatin was dosed alone at either 1 or 3 mg/kg ip, once per week (ip, q7d, on day 2 of each week) for two weeks. VE-822 was dosed as a solution alone at 60 mg/kg po on 4 consecutive days per weekly cycle (qd4, dosed on days 1, 2, 3 and 4 each week). Two combination groups received cisplatin at 1 or 3 mg/kg plus VE-822 at 60 mg/kg po on the same schedule as the single agent group. A control group received vehicle alone (10% Vitamin E TPGS in water, po qd4). All drug treatment was stopped on Day 28. Vehicle, cisplatin (1 mg/kg) and VE-822 (60 mg/kg) groups were sacrificed and the remainder monitored for a further 40 days to assess tumor re-growth.
Data are mean±sem, n=9-10. […]

[4] = test system: panel of 35 human lung cancer cell lines; assay: Lung cancer cell screen, CellTiter-Glo cell viability assay; format: cell-based; conditions: 96 hours
Description: All cell lines were seeded in 30 μl of tissue culture medium containing 10% FBS into 384-well opaque-bottom assay plates. The seeding density was based on the logarithmic growth rate of each cell line. After 24 hours, compound stock solutions were added to each well to afford a matrix consisting of 5 concentrations for VE-822 and 6 concentrations for chemotoxics. Each well contains either, agent alone or a combination of both agents. The final concentration range for VE-822 was 25 nM-2 μM. The concentration ranges for the chemotoxics were as follows: Etoposide, 10 nM-10 μM; Gemcitabine, 0.16 nM-160 nM; Cisplatin, 20 nM-20 μM; Oxaliplatin, 40 nM-40 μM; Irinotecan (SN-38), 0.12 nM-120 nM. The cells were then incubated for 96 hours at 37° C. in an atmosphere of 5% CO2 and 95% humidity.
This assay measures the number of viable cells in a culture based on the quantitation of ATP, which is present in metabolically active cells.
CellTiter-Glo Reagent (Promega, Madison, Wis., USA) was prepared according to the manufacturer's instructions and added 96 hours after compound addition (25 μl/well) to measure cell viability. Luminescence signal was measured with the PHERAStarFS (BMG Labtech, Cary, N.C., USA) automated plate reader. […]
Raw luminescence CellTiter-Glo (CTG) values were normalized to the mean CTG value for the negative control DMSO-treated samples on each assay plate. […]

SMILES | radiosensitisation of pancreatic tumour cells (cell viability) [1] | radiosensitisation of normal cells (cell viability) (MRCS fibroblasts) | RAD51 foci formation ([2]; fixed 6 h post-irradiation, FIG. 5) | 53BP1 and γH2AX foci number ([2]; fixed 24 h post-irradiation, FIG. 5) | repair of DNA damage by homologous recombination ([2]; FIG. 5 panels A, B, C) | antitumor effects of cisplatin (tumor volume) [3] | synergy with chemotoxics across lung cancer cell lines ([4]; maximum shift in IC50 of each chemotoxic, FIG. 16) | synergy (shift in IC50 of chemotoxic) in lung cancer cell lines ([4]; with cisplatin, etoposide, gemcitabine, oxaplatin and irinotecan, FIG. 17)
CS(=O)(=O)c1ccc(-c2cnc(N)c(C(=O)Nc3ccccc3)n2)cc1 [VE-821] | radiosensitises pancreatic tumour cells | not normal cells | reduces RAD51 foci formation | increases 53BP1 and γH2AX foci number | inhibits repair of DNA damage by homologous recombination |  |  | 
CNCc1ccc(-c2cc(-c3nc(-c4ccc(S(=O)(=O)C(C)C)cc4)cnc3N)on2)cc1 [VE-822] |  |  |  |  |  | enhances the antitumor effects of cisplatin | Synergizes with Chemotoxics | greater than 3 fold
